The target in series [1] is Myosin light chain kinase, smooth muscle (Homo sapiens, UniProt Q15746). Kind of series: Selectivity interaction (KinomeScan (DiscoverX)) EUB0000092b MYLK. As to conditions: at 10 µM.
A further series concerns the target OATP1B1 (SLCO1B1) (Homo sapiens, UniProt Q9Y6L6). Kind of series: Selectivity interaction (Panel of kinases, GPCRs, ion channels and transporters (enzymatic assay)) EUB0000223bCl SLCO1B1. The note with it: not told.
Series [2] concerns the target T1, Mitogen-activated protein kinase kinase kinase 19 (Homo sapiens) (UniProt Q56UN5).
T1 sequence (whole entry): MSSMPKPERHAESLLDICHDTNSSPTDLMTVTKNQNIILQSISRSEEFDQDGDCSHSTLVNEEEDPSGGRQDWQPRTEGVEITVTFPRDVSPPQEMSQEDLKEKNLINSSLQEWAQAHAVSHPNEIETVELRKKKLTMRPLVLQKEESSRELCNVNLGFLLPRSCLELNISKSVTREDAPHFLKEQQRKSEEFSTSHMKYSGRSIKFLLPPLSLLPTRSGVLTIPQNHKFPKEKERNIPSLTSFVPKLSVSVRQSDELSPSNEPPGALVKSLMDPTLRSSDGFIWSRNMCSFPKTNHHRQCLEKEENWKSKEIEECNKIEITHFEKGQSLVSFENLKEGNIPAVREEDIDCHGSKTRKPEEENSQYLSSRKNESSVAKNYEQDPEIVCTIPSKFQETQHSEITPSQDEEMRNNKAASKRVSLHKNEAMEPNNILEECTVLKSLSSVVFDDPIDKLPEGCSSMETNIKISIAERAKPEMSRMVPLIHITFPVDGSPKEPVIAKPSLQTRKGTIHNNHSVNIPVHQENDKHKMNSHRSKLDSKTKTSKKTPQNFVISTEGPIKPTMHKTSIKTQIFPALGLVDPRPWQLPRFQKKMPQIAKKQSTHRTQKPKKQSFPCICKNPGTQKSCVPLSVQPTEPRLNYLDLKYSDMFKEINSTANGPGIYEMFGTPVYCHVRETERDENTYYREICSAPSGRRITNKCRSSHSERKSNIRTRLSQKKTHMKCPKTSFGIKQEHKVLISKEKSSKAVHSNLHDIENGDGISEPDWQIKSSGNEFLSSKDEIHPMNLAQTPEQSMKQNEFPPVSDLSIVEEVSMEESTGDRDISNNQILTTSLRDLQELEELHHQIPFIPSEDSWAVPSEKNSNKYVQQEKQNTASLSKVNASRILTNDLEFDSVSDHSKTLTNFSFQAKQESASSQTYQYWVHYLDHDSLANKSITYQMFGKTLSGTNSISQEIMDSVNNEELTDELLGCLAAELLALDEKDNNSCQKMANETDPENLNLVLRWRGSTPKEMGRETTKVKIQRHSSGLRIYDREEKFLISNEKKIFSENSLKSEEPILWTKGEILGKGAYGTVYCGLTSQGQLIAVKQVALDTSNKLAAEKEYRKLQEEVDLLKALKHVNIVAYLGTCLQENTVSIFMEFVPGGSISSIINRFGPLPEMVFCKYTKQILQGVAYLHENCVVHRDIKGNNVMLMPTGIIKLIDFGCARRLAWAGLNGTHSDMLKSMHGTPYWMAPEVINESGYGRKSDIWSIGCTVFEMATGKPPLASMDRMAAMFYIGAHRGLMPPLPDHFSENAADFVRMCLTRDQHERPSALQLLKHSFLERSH
Kind of series: Selectivity interaction (KinomeScan (DiscoverX)) EUB0000695a MAP3K19. As to conditions: at 100 nM.

For series [3], the target named is Fibroblast growth factor receptor 3 (Homo sapiens, UniProt P22607). Kind of series: (§1) Selectivity interaction (Kinase panel (Z-LYTE Assay)) EUB0001632a FGFR3. The note with it: at 10 µM.
Series [4] concerns Fibroblast growth factor receptor 3 (Homo sapiens), P22607 [K650E]. The series is described as §1. As to conditions: at 10 µM.
The nature of series [5]: Selectivity interaction (KinomeScan (DiscoverX)) EUB0000229b PKNB. The note with it: at 1 µM.
In another series the target is Endothelin-1 receptor (Homo sapiens, UniProt P25101). Kind of series: Selectivity interaction (Endothelin A receptor binding assay, human recombinant ) EUB0000877a EDNRA.
Series [6] addresses Serine/threonine-protein kinase PLK2 (Homo sapiens, UniProt Q9NYY3). Kind of series: Selectivity interaction (KinomeScan (DiscoverX)) EUB0000595a PLK2. As to conditions: at 10 µM.
Series [7] has as its target Choline kinase alpha (Homo sapiens) (UniProt P35790). Kind of series: Selectivity interaction (Kinase panel (literature)) EUB0001199aCl CHKA. The note with it: at 1 µM.
For series [8], the target named is T2, Tyrosine-protein kinase JAK3 (Homo sapiens) (UniProt P52333).
T2 sequence (whole entry): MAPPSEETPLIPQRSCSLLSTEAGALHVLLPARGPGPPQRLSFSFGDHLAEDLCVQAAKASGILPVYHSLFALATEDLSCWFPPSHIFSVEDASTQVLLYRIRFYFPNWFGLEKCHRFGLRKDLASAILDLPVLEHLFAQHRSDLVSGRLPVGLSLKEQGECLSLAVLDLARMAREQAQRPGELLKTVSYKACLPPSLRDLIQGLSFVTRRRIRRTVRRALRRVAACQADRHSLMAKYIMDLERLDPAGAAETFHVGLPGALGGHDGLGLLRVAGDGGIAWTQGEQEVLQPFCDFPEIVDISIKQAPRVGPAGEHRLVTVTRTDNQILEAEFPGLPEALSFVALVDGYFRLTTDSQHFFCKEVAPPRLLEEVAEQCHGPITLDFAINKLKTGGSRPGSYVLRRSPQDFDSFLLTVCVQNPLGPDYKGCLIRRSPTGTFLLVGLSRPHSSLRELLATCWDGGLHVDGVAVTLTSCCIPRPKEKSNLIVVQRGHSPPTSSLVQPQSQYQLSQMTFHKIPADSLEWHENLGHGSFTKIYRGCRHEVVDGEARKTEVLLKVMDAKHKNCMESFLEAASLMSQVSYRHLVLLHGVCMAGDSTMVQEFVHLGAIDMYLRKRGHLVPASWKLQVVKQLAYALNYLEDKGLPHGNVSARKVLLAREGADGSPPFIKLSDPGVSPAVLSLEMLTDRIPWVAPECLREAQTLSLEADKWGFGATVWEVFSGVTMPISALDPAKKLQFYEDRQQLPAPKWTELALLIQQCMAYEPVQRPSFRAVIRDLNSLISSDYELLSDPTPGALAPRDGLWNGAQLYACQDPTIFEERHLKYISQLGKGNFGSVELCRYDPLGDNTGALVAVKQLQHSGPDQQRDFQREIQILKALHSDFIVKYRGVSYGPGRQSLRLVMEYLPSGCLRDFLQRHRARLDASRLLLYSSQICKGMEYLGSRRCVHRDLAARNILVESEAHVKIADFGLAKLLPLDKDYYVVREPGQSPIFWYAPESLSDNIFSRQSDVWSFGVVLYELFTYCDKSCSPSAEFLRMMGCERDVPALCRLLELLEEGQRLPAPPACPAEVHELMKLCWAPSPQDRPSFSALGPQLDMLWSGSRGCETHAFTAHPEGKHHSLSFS
Kind of series: Selectivity interaction (KinomeScan (DiscoverX)) EUB0000618a JAK3. As to conditions: at 10 µM.

Molecules are shown by their SMILES.

Nine molecules from ChEMBL document CHEMBL5465560, “Selectivity Literature for EUbOPEN Chemogenomic Library” (2024) can be followed below.

Chain of Serine/threonine-protein kinase PLK2 (Q9NYY3 whole entry, looked up): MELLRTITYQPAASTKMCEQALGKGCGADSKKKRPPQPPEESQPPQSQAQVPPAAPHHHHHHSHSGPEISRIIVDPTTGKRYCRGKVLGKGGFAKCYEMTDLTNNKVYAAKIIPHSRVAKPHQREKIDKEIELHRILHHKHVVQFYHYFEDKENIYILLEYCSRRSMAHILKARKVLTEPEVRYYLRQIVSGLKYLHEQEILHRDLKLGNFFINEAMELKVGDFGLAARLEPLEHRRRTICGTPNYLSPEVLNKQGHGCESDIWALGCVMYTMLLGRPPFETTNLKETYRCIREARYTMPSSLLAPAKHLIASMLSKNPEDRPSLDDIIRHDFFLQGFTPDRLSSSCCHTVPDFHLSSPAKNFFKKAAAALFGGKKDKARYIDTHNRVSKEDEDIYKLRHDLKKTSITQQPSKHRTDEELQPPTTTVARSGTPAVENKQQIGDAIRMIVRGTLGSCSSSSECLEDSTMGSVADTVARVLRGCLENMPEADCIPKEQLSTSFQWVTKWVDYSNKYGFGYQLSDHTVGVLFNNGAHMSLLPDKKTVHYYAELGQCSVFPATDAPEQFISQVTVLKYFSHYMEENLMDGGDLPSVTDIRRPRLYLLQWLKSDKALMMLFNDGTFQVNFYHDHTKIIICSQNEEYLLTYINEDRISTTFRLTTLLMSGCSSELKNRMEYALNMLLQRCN
Chain of Choline kinase alpha (Homo sapiens) (P35790 whole entry, looked up): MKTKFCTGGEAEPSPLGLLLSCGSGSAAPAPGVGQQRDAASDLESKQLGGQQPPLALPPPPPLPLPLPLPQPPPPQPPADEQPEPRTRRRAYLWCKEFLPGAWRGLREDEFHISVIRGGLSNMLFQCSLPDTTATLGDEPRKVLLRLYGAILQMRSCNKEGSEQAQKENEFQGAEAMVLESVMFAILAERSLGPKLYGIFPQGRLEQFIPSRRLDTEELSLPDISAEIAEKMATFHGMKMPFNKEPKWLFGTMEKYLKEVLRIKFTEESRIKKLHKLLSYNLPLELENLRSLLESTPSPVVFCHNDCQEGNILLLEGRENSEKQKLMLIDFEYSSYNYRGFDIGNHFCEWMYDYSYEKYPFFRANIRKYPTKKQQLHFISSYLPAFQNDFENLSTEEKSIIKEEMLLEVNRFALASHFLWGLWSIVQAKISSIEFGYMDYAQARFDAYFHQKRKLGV
Chain of OATP1B1 (SLCO1B1) (Q9Y6L6 whole entry): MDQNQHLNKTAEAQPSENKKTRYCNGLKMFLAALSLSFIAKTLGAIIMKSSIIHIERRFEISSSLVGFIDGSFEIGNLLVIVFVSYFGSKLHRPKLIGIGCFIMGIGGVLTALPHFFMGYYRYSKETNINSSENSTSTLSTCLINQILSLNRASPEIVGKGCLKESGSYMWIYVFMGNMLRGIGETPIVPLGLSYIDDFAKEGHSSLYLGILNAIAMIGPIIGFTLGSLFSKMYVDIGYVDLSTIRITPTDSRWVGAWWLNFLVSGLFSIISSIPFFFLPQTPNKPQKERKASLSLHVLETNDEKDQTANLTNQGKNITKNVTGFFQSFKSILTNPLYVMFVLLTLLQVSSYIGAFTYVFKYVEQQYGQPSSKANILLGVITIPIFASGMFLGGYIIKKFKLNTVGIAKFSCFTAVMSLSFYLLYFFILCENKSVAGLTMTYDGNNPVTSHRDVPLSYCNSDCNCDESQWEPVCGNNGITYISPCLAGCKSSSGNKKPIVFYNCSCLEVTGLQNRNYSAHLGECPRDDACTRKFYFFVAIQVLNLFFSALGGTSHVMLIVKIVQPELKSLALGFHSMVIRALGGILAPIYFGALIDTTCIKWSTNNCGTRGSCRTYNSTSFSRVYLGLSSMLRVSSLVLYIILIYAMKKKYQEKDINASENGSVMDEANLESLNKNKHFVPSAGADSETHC
Chain of Myosin light chain kinase, smooth muscle (Q15746 whole entry): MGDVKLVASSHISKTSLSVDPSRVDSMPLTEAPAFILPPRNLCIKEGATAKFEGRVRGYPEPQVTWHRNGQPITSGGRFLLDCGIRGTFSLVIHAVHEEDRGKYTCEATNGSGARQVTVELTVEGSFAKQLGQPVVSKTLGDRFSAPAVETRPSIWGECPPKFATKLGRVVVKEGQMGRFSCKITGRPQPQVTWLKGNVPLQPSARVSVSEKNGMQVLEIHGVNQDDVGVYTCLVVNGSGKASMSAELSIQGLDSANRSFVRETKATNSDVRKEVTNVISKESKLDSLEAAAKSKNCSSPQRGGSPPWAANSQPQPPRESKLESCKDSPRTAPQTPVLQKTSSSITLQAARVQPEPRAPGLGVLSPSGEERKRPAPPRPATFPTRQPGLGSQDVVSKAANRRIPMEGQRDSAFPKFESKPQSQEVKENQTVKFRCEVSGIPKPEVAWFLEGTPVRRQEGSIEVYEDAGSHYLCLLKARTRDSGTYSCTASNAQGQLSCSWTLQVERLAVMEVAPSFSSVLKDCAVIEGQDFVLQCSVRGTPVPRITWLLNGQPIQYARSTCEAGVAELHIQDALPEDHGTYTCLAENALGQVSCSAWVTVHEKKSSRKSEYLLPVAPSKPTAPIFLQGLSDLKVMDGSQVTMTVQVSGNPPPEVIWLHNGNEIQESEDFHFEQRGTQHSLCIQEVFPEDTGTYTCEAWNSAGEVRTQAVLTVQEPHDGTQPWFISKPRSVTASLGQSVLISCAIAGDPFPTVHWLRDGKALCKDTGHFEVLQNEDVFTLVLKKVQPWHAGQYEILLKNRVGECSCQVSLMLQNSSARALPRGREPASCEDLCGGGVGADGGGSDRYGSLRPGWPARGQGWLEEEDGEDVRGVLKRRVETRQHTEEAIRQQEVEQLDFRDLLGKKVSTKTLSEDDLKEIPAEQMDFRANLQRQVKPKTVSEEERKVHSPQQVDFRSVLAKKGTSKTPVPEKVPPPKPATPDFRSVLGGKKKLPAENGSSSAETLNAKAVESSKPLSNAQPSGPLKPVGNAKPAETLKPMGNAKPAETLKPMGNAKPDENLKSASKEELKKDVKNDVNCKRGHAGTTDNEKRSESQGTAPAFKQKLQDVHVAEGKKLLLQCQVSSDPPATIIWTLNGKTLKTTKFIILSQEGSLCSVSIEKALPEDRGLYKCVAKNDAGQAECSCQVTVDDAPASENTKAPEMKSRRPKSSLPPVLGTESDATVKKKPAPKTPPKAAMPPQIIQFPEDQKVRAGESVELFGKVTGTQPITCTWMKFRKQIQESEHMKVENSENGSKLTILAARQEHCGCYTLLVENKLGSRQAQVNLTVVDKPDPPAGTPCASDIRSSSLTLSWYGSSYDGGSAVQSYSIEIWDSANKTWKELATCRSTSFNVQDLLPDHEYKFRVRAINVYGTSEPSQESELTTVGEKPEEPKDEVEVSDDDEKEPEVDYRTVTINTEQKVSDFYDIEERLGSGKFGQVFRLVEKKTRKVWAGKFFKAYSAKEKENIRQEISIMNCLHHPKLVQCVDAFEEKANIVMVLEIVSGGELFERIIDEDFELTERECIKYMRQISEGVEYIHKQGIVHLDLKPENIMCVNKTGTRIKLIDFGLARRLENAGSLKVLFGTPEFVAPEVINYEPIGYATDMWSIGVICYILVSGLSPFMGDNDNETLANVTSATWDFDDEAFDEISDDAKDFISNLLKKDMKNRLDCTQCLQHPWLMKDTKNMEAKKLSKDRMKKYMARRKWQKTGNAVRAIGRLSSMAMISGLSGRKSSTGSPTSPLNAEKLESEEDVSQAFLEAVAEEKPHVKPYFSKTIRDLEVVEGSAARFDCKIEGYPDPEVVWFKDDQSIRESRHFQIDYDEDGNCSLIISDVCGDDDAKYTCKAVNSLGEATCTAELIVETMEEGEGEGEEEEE
Chain of Endothelin-1 receptor (P25101 whole entry): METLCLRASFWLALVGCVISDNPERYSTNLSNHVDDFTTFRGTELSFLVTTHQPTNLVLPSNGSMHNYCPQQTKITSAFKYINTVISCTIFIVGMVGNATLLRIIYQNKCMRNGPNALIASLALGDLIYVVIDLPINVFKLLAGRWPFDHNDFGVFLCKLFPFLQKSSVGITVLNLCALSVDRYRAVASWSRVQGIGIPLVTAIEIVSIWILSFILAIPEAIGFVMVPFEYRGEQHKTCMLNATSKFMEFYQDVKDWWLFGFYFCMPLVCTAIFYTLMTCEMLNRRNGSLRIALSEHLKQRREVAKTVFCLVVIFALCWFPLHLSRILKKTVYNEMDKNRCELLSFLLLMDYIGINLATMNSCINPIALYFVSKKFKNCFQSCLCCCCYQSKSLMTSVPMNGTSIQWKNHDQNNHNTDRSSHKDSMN
Chain of Fibroblast growth factor receptor 3 (P22607 23-806 limits assumed): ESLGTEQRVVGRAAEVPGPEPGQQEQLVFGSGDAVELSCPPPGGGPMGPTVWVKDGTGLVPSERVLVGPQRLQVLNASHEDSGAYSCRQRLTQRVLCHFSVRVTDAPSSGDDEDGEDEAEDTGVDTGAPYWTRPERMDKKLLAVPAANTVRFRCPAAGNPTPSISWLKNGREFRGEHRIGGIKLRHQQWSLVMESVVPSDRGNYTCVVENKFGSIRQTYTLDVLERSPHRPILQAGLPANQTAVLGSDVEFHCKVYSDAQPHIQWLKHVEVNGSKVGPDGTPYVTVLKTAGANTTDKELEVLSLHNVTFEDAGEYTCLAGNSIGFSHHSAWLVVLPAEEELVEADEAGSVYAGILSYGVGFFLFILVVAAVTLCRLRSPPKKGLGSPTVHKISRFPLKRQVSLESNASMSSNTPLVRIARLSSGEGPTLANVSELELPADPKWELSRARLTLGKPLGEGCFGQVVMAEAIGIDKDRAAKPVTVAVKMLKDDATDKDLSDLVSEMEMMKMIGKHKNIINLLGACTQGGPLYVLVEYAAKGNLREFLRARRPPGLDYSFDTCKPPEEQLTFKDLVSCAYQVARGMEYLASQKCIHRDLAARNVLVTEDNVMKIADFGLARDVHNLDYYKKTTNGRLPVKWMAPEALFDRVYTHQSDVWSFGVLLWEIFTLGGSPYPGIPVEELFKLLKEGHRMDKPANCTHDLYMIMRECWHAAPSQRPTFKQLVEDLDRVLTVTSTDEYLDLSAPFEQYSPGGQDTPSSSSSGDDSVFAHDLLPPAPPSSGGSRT

The molecule `CCC(=O)N1CCN(c2ccc(-n3c(=O)ccc4cnc5ccc(-c6cnc7ccccc7c6)cc5c43)cc2C(F)(F)F)CC1` registered a % of control in series [1] of 87%.

In the case of `COc1cc(C(=O)N2CC[C@@H](O)[C@@H](N)C2)cc2nc(-c3cc4ccccc4n3CC3CC3)n(C)c12`, at OATP1B1 (SLCO1B1), the XC50 was 7.94 µM.

For `Cc1cc(F)c(C(=O)Nc2cccc(-c3nncn3C(C)C)n2)cc1-n1cnc(C2CC2)c1`, in [2], the % of control was 57%.

On to `Cn1cc(-n2cnc3c(NCc4nc5cc(Cl)c(Cl)cc5[nH]4)nc(N4CCOCC4)nc32)cn1`, for which the % of control stood at 4.08% in [3] and 19.3% in [4]. In turn, `COc1cc(N(C)c2ccnc3ccc(C(F)(F)F)cc23)cc(OC)c1OC` came in with a % binding in series [5] of 100%.

One may read the IC50 as the concentration needed to halve the response being measured. Consider `CCC(=O)N1CC[C@H](Nc2ncnc3c2CN(c2cnc(OC)c(C(F)(F)F)c2)CC3)C1` [LENIOLISIB], for which, on Endothelin-1 receptor, the IC50 was more than 30 µM. As for `COCC(=O)NC/C=C/c1ccc2ncnc(Nc3ccc(Oc4ccc(C)nc4)c(C)c3)c2c1` [CP-724714], the % of control in [6] stood at 100%. As to `CN1Cc2nccc(-c3cn(C)nc3-c3ccc(F)cc3)c2C1=O`, the % of inhibition in series [7] was -3%. Turning to `O[C@H]1CC[C@H](Nc2ncc3nc(Nc4c(F)cc(F)cc4F)n([C@H]4CCOC4)c3n2)CC1`, the % of control in series [8] worked out at 90%.
